Data reported in ChEMBL document CHEMBL1156790, “Synthesis and structure-activity relationships of antitubercular 2-nitroimidazooxazines bearing heterocyclic side chains” (J Med Chem, 2010).
In brackets after ≈: the same amount, converted by molar mass.

Columns and labels:
[1] = system: Mycobacterium tuberculosis; test: Antimycobacterial activity against Mycobacterium tuberculosis H37Rv after 16 to 24 hrs by microplate alamar blue assay; format: functional
[2] = system: Mycobacterium tuberculosis; test: Antitubercular effect in Mycobacterium tuberculosis infected BALB/c mouse assessed as CFU reduction at 100 mg/kg, po administered 5 days a week for 3 weeks relative to PA-824; format: functional
[3] = system: Mycobacterium tuberculosis; test: Antimycobacterial activity against Mycobacterium tuberculosis H37Rv expressing pFCA-luxAB after 10 days by luminescence-based low-oxygen recovery assay; format: functional; details: 240 h
[4] = Thermodynamic solubility in water at pH 7.4 at; format: physicochemical; details: for solubility thermodynamic: water
[5] = Metabolic stability in mouse liver microsomes after 1 hr at 37 degC; format: ADME, Microsome
[6] = system: Vero; test: Cytotoxicity against african green monkey Vero cells after 72 hrs by tetrazolium dye assay; format: cell-based; details: Chlorocebus sabaeus
[7] = system: Liver microsomes; test: (§1) Metabolic stability in human liver microsomes after 1 hr at 37 degC; format: ADME, Microsome; details: microsomes, 1 h
[8] = as §1; format: ADME, Microsome; details: liver microsomes, read-out: Stability

Structure (SMILES) | MIC [1] [µM] | fold change (FC) [2] | MIC [3] [µM] | solubility thermodynamic [4] [µg/mL] | Stability ([5]; microsomes, 1 h) [%] | IC50 [6] [µM] | Stability [7] [%] | solubility ([4]; buffer) [µg/mL] | remaining at 1 h ([5]; liver microsomes, read-out: Stability) [%] | remaining at 1 h [8] [%]
O=[N+]([O-])c1cn2c(n1)OC[C@@H](OCc1ccn(-c3ccc(OC(F)(F)F)cc3)n1)C2 | 0.05 (≈ 0.0213 µg/mL) | 41 | 0.61 (≈ 0.259 µg/mL) | 23 (≈ 54.1 µM) | 67 | > 128 | 87 |  |  | 
Cn1nc(-c2ccc(OC(F)(F)F)cc2)cc1CO[C@@H]1COc2nc([N+](=O)[O-])cn2C1 | 0.06 (≈ 0.0264 µg/mL) | 12 | 0.58 (≈ 0.255 µg/mL) |  |  | > 128 |  | 0.88 (≈ 2 µM) | 81 | 86
O=[N+]([O-])c1cn2c(n1)OC[C@@H](OCc1ccc(OC(F)(F)F)cc1)C2 [PRETOMANID] |  |  | 2.6 (≈ 0.934 µg/mL) | 11 (≈ 30.6 µM) |  | > 128 |  |  |  | 
